In brackets after ≈: the same amount, converted by molar mass. Several values for one entry are separate records, joined by “and”; a condition that tells them apart may be missing. Equal values may be shown once. Values belong to the compound of their own block, whether it stands above or below them.
Legend:
Test in all cases: ≥ marks a high value that may be exact or a test limit, other limits are often not marked, values filed in µg/mL are converted to µM
[1] = system: Photobacterium damselae subsp. piscicida Sp 9587
[2] = system: Escherichia coli JCM 1649
Salmonella typhimurium = system: Salmonella typhimurium
[3] = system: Vibrio anguillarum NCIMB 829
[4] = system: Bacillus subtilis IAM 1026
[5] = system: Vibrio parahaemolyticus Vp+1
[6] = system: Aeromonas salmonicida NCIMB 1102
[7] = system: Staphylococcus aureus IAM 1011
[8] = system: Shewanella putrefaciens IAM 1509
Micrococcus luteus = system: Micrococcus luteus
Escherichia coli = system: Escherichia coli
Streptococcus uberis = system: Streptococcus uberis
[9] = system: Staphylococcus epidermidis
Staphylococcus aureus = system: Staphylococcus aureus
Pasteurella multocida = system: Pasteurella multocida
Bacillus cereus = system: Bacillus cereus
Leuconostoc lactis = system: Leuconostoc lactis
Listeria innocua = system: Listeria innocua
[10] = system: Acinetobacter baumannii ATCC 19606
[11] = system: Staphylococcus aureus ATCC BAA-44
Escherichia coli ML-35p = system: Escherichia coli ML-35p
Saccharomyces cerevisiae = system: Saccharomyces cerevisiae
[12] = system: Streptococcus pyogenes ATCC 19615
[13] = system: Staphylococcus aureus ATCC 43300
[14] = system: Escherichia coli NCTC 10418
[15] = system: Klebsiella pneumoniae ATCC 13883
[16] = system: Staphylococcus aureus ATCC 25923
[17] = system: Pseudomonas aeruginosa ATCC 27853
[18] = system: Enterococcus faecalis ATCC 29212
[19] = system: Candida albicans NCPF 1467
[20] = system: Staphylococcus aureus ST1065
[21] = system: Candida parapsilosis ATCC 22019
[22] = system: Escherichia coli ATCC 25922
[23] = system: Staphylococcus aureus NCTC 10788
[24] = system: Escherichia coli O157:H7 ATCC 43895
Escherichia coli DC2 = system: Escherichia coli DC2
Escherichia coli K-12 = system: Escherichia coli K-12
[25] = system: Staphylococcus aureus UAMS-1

SMILES: CC[C@H](C)[C@H](NC(=O)[C@H](CO)NC(=O)[C@H](C)NC(=O)[C@@H](NC(=O)CNC(=O)[C@H](CO)NC(=O)[C@@H](NC(=O)[C@@H](NC(=O)[C@H](Cc1cnc[nH]1)NC(=O)[C@@H]1CCCN1C(=O)[C@@H](NC(=O)[C@H](CC(C)C)NC(=O)[C@H](CO)NC(=O)[C@H](CC(C)C)NC(=O)[C@@H](N)Cc1ccccc1)[C@@H](C)CC)[C@@H](C)CC)C(C)C)C(C)C)C(=O)N[C@@H](C)C(=O)N[C@@H](CCCCN)C(=O)N[C@@H](Cc1cnc[nH]1)C(=O)N[C@@H](Cc1ccccc1)C(N)=O [FLSLIPHIVSGVASIAKHF]
MIC [10]: 6.25 µM (≈ 12.7 µg/mL)
MIC [11]: 6.25 µM (≈ 12.7 µg/mL)
MIC (Escherichia coli ML-35p): ≥ 100 µM
MIC (Saccharomyces cerevisiae): 12.5 µM (≈ 25.4 µg/mL)
MIC [12]: 3.12 µM (≈ 6.35 µg/mL)
MIC [13]: 6.25 µM (≈ 12.7 µg/mL)
MIC [14]: ≥ 80 µM
MIC [15]: ≥ 100 µM
MIC [16]: 6.25 µM (≈ 12.7 µg/mL)
MIC [17]: > 100 µM
MIC [18]: 25 µM (≈ 50.9 µg/mL)
MIC [19]: ≥ 100 µM
MIC [20]: 6.25 µM (≈ 12.7 µg/mL)
MIC [21]: ≥ 100 µM
MIC [22]: 70 µM (≈ 142 µg/mL)
MIC [23]: 5 µM (≈ 10.2 µg/mL)

SMILES: CC[C@H](C)[C@H](NC(=O)[C@H](C)NC(=O)[C@H](CC(C)C)NC(=O)[C@H](CO)NC(=O)[C@H](C)NC(=O)[C@@H](NC(=O)CNC(=O)[C@H](CO)NC(=O)[C@@H](NC(=O)[C@@H](NC(=O)[C@H](Cc1cnc[nH]1)NC(=O)[C@@H]1CCCN1C(=O)[C@@H](NC(=O)[C@H](CC(C)C)NC(=O)[C@H](CO)NC(=O)[C@H](CC(C)C)NC(=O)[C@@H](N)Cc1ccccc1)[C@@H](C)CC)[C@@H](C)CC)C(C)C)C(C)C)C(=O)N[C@@H](Cc1cnc[nH]1)C(=O)N[C@@H](Cc1ccccc1)C(N)=O [FLSLIPHIVSGVASLAIHF]
MIC [10]: > 200 µM
MIC [11]: ≥ 200 µM
MIC (Escherichia coli ML-35p): ≥ 200 µM
MIC (Saccharomyces cerevisiae): ≥ 200 µM
MIC [12]: 12.5 µM (≈ 25.3 µg/mL)
MIC [13]: > 200 µM
MIC [15]: ≥ 200 µM
MIC [16]: > 200 µM
MIC [17]: > 200 µM
MIC [18]: > 200 µM
MIC [20]: ≥ 200 µM
MIC [21]: ≥ 200 µM
MIC [22]: > 200 µM

SMILES: CC(C)C[C@H](NC(=O)[C@H](C)N)C(=O)N[C@@H](Cc1c[nH]c2ccccc12)C(=O)N[C@@H](CCCCN)C(=O)N[C@H](C(=O)N[C@@H](CC(C)C)C(=O)N[C@@H](CC(C)C)C(=O)N[C@@H](CCCCN)C(=O)N[C@@H](CCCCN)C(=O)N[C@H](C(=O)N[C@@H](CC(C)C)C(=O)N[C@@H](CCCCN)C(=O)N[C@@H](C)C(=O)N[C@@H](C)C(=O)N[C@@H](C)C(=O)N[C@@H](CCCCN)C(=O)N[C@@H](C)C(=O)N[C@@H](C)C(=O)N[C@@H](CC(C)C)C(=O)N[C@@H](CCCCN)C(=O)N[C@@H](C)C(=O)N[C@H](C(=O)N[C@@H](CC(C)C)C(=O)N[C@H](C(=O)NCC(=O)N[C@@H](C)C(=O)N[C@@H](CC(N)=O)C(=O)N[C@@H](C)C(N)=O)C(C)C)C(C)C)C(C)C)[C@@H](C)O [ALWKTLLKKVLKAAAKAALKAVLVGANA]
MIC [24]: 8 µM (≈ 22.9 µg/mL)

Now from value to compound, other results behind:

MIC [1]: 8 µM (≈ 25 µg/mL)
MIC [2]: 16 µM (≈ 50 µg/mL)
MIC (Salmonella typhimurium): 16 µM (≈ 50 µg/mL)
MIC [3]: 16 µM (≈ 50 µg/mL)
MIC [4]: 8 µM (≈ 25 µg/mL)
MIC [6]: 8 µM (≈ 25 µg/mL)
MIC [7]: 4 µM (≈ 12.5 µg/mL)
MIC [8]: 2 µM (≈ 6.25 µg/mL)
SMILES: CC(C)C[C@H](NC(=O)[C@H](Cc1cnc[nH]1)NC(=O)CNC(=O)[C@H](C)NC(=O)[C@H](C)NC(=O)[C@@H](NC(=O)[C@H](Cc1ccccc1)NC(=O)[C@H](C)NC(=O)[C@H](CC(C)C)NC(=O)[C@H](CCCCN)NC(=O)[C@H](CCCCN)NC(=O)[C@H](CC(C)C)NC(=O)[C@H](CC(C)C)NC(=O)[C@H](CCC(=O)O)NC(=O)[C@H](CCCN=C(N)N)NC(=O)[C@H](Cc1c[nH]c2ccccc12)NC(=O)[C@@H](N)Cc1c[nH]c2ccccc12)[C@@H](C)O)C(=O)NCC(=O)N[C@@H](CO)C(=O)N[C@H](C(=O)N[C@@H](CC(C)C)C(=O)N[C@@H](C)C(=O)N[C@@H](C)C(=O)N[C@@H](CCCCN)C(=O)N[C@@H](CCC(N)=O)C(=O)N[C@@H](CO)C(=O)NCC(=O)N[C@@H](Cc1c[nH]c2ccccc12)C(=O)O)C(C)C [WWRELLKKLAFTAAGHLGSVLAAKQSGW]
MIC [5]: 16 µM (≈ 50 µg/mL)

MIC [1]: 9.66 µM (≈ 25 µg/mL)
MIC [2]: 19.3 µM (≈ 50 µg/mL)
MIC (Salmonella typhimurium): 19.3 µM (≈ 50 µg/mL)
MIC [3]: 19.3 µM (≈ 50 µg/mL)
MIC [4]: 19.3 µM (≈ 50 µg/mL)
MIC [6]: 19.3 µM (≈ 50 µg/mL)
MIC [7]: 19.3 µM (≈ 50 µg/mL)
MIC [8]: 4.83 µM (≈ 12.5 µg/mL)
SMILES: CC[C@H](C)[C@H](NC(=O)[C@H](CCC(N)=O)NC(=O)CNC(=O)[C@H](CC(C)C)NC(=O)[C@@H](NC(=O)[C@H](CCCCN)NC(=O)[C@H](CCCN=C(N)N)NC(=O)[C@H](Cc1c[nH]c2ccccc12)NC(=O)[C@@H](N)CC(N)=O)[C@@H](C)CC)C(=O)N[C@@H](C)C(=O)N[C@@H](CO)C(=O)N[C@H](C(=O)NCC(=O)N[C@@H](C)C(=O)NCC(=O)N[C@@H](CC(C)C)C(=O)N[C@@H](CC(C)C)C(=O)NCC(=O)N[C@@H](CO)C(=O)N[C@@H](CC(C)C)C(=O)N[C@@H](CC(C)C)C(=O)N[C@@H](C)C(=O)NCC(=O)N[C@@H](Cc1ccc(O)cc1)C(=O)N[C@@H](CCC(=O)O)C(=O)O)C(C)C [NWRKILGQIASVGAGLLGSLLAGYE]
MIC [5]: 19.3 µM (≈ 50 µg/mL)

MIC (Micrococcus luteus): ≥ 69.6 µM
MIC (Escherichia coli): > 69.6 µM
MIC (Streptococcus uberis): ≥ 69.6 µM
MIC [9]: ≥ 69.6 µM
MIC (Staphylococcus aureus): 69.6 µM (≈ 99.9 µg/mL)
MIC (Pasteurella multocida): ≥ 69.6 µM
MIC (Bacillus cereus): ≥ 69.6 µM
MIC (Leuconostoc lactis): 17.4 µM (≈ 25 µg/mL)
MIC (Listeria innocua): ≥ 69.6 µM
SMILES: CC[C@H](C)[C@H](NC(=O)[C@H](CC(N)=O)NC(=O)[C@H](CCCCN)NC(=O)[C@@H](NC(=O)[C@@H](NC(=O)[C@H](CC(=O)O)NC(=O)[C@H](Cc1ccccc1)NC(=O)[C@H](CC(C)C)NC(=O)CN)[C@@H](C)CC)[C@@H](C)CC)C(=O)N[C@@H](Cc1ccccc1)C(=O)N[C@@H](CO)C(=O)NCC(=O)N[C@@H](CC(C)C)C(N)=O [GLFDIIKNIFSGL]

MIC (Escherichia coli DC2): 2 µM (≈ 5.67 µg/mL)
MIC (Escherichia coli K-12): ≥ 40 µM
MIC [25]: ≥ 160 µM
MIC (Staphylococcus aureus): > 24 µM and 12 µM
SMILES: CC[C@H](C)[C@H](NC(=O)[C@H](CCCCN)NC(=O)[C@H](CCC(=O)O)NC(=O)[C@H](CCCCN)NC(=O)[C@@H](NC(=O)[C@H](CCCCN)NC(=O)[C@H](CCCN=C(N)N)NC(=O)[C@H](Cc1ccccc1)NC(=O)[C@H](Cc1ccccc1)NC(=O)[C@H](CC(=O)O)NC(=O)CNC(=O)[C@H](CC(C)C)NC(=O)[C@@H](N)CC(C)C)C(C)C)C(=O)NCC(=O)N[C@@H](CCCCN)C(=O)N[C@@H](CCC(=O)O)C(=O)N[C@@H](Cc1ccccc1)C(=O)N[C@@H](CCCCN)C(=O)N[C@@H](CCCN=C(N)N)C(=O)N[C@H](C(=O)N[C@H](C(=O)N[C@@H](CCC(N)=O)C(=O)N[C@@H](CCCN=C(N)N)C(=O)O)C(C)C)[C@@H](C)CC [LLGDFFRKVKEKIGKEFKRIVQR]
